Structures can show the parent of a compound that is named as a salt.
What was measured:
[1] = Determination of pharmacokinetic parameters following intravenous and oral administration (rats); assay type: in vivo, male Wistar rats; details: intravenous administration in rats; for half-life / MRT: male, Wistar, rat, plasma, iv; for MRT: read-out: MRT
In short: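 Rats (male Wistar) dosed IV in plasma/DMSO formulation or orally by gavage in water/PEG400/ethanol; serial jugular-catheter blood sampling (usually >10 points, up to 24–72 h).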

[2] = target: T1, recombinant guanylate cyclase reporter cell line (Rattus norvegicus, UniProt P19686+P20595); experiment: Action on recombinant guanylate cyclase reporter cell line; assay type: cell-based; details: in some cases mean values from individual determinations
T1 construct: expressed in transfected cells; host or cells: recombinant reporter cell line
T1 sequence (P19686 1-690): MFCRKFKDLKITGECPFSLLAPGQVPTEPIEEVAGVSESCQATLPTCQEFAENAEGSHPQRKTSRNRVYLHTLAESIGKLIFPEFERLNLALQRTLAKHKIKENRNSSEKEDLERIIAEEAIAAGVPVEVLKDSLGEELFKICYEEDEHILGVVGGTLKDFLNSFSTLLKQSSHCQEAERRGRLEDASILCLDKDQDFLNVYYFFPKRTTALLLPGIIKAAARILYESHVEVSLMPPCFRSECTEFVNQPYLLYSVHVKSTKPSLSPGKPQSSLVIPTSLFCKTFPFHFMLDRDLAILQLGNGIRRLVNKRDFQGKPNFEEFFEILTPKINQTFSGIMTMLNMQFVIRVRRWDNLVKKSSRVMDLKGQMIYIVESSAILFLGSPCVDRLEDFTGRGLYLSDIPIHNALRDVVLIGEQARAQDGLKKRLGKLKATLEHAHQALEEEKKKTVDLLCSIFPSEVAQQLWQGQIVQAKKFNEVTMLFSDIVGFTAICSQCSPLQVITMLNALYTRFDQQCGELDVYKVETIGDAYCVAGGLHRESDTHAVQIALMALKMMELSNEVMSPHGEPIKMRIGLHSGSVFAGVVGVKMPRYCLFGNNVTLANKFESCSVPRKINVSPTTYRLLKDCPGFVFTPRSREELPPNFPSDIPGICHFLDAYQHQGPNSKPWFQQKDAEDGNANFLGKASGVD
T1 sequence (P20595 1-619): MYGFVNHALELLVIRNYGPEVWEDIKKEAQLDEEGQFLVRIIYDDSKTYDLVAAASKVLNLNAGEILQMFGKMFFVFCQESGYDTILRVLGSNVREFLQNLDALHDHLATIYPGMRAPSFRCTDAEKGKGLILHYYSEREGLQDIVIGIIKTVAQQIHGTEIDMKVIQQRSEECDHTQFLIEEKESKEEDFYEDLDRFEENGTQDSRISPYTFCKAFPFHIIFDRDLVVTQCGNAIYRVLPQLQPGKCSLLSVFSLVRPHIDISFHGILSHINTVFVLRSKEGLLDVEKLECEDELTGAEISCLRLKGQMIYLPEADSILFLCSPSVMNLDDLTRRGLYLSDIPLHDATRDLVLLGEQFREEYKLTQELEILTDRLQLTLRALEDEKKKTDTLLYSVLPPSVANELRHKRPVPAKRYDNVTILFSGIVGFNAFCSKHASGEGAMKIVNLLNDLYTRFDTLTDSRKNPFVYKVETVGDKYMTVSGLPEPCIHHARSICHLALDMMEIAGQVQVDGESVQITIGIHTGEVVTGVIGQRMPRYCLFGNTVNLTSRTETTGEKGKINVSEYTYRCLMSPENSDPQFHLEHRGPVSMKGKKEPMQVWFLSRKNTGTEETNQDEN
In short: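 Cellular activity was measured in a reporter cell line expressing recombinant guanylate cyclase. Values are given as MEC, the minimal effective concentration, and some are means of individual determinations.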

| Structure (SMILES) | AUCnorm [1] | CLblood [1] | half-life [1] | MRT [1] | MEC (minimal effective concentration) [2] |
| --- | --- | --- | --- | --- | --- |
| CCCC(C)(N)CNC(=O)c1c(C)nc2c(OCc3cccc(F)c3F)cc(C)cn12 (racemic) [Example 303, rac-N-(2-amino-2-methylpentyl)-8-[(2,3-difluorobenzyl)oxy]-2,6-dimethylimidazo[1,2-a]pyridine-3-carboxamide] | 0.26 kg·h/L | 45.7 mL/min/kg | 5.7 h | 8.2 h | 0.20 µM |
| Cc1nc2c(OCc3c(F)cccc3F)cc(Cl)cn2c1C(=O)NCC(N)C(C)C (single isomer, unassigned) [Example 211, ent-N-(2-Amino-3-methylbutyl)-6-chloro-8-[(2,6-difluorobenzyl)oxy]-2-methylimidazo[1,2-a]-pyridine-3-carboxamide] | 0.78 kg·h/L | 17.8 mL/min/kg | 4.8 h | 6.6 h | 0.30 µM |
| Cc1cc(OCc2c(F)ccc(F)c2F)c2nc(C)c(C(=O)NCC(C)(C)N)n2c1 [Example 276, N-(2-Amino-2-methylpropyl)-2,6-dimethyl-8-[(2,3,6-trifluorobenzyl)oxy]imidazo[1,2-a]pyridine-3-carboxamide] | 0.70 kg·h/L | 21.2 mL/min/kg | 2.9 h | 4.5 h | 0.10 µM |
| CCC(C)(N)CNC(=O)c1c(C)nc2c(OCc3c(F)cccc3F)cc(OC)cn12 (single isomer, unassigned; enantiomer a) [Example 279, ent-N-(2-amino-2-methylbutyl)-8-[(2,6-difluorobenzyl)oxy]-6-methoxy-2-methylimidazo[1,2-a]pyridine-3-carboxamide (Enantiomer A)] | 0.42 kg·h/L | 46 mL/min/kg | 2.3 h | 2.9 h | 0.3 µM |
| Cc1cc(OCc2c(F)cccc2F)c2nc(C)c(C(=O)NCC(N)C(C)C)n2c1 (single isomer, unassigned) [Example 223, ent-N-(2-Amino-3-methylbutyl)-8-[(2,6-difluorobenzyl)oxy]-2,6-dimethylimidazo[1,2-a]pyridine-3-carboxamide] | 0.87 kg·h/L | 18.2 mL/min/kg | 4.8 h | 6.1 h | 0.30 µM |
| Cc1cc(OCc2c(F)cccc2F)c2nc(C)c(C(=O)NCC3(N)CCCCC3)n2c1 [Example 307, N-[(1-aminocyclohexyl)methyl]-8-[(2,6-difluorobenzyl)oxy]-2,6-dimethylimidazo[1,2-a]pyridine-3-carboxamide] | 0.35 kg·h/L | 29.7 mL/min/kg | 6.9 h | 9.8 h | 0.65 µM |
| Cc1nc2c(OCc3c(F)cccc3F)cc(Cl)cn2c1C(=O)NCC1(N)CCC1 [Example 155, N-[(1-aminocyclobutyl)methyl]-6-chloro-8-[(2,6-difluorobenzyl)oxy]-2-methylimidazo[1,2-a]-pyridine-3-carboxamide trifluoroacetate] | 0.97 kg·h/L | 21.2 mL/min/kg | 7.7 h | 11.2 h | 0.30 µM |

From patent US20150274719A1, “AMINO-SUBSTITUTED IMIDAZO[1,2-A]PYRIDINECARBOXAMIDES AND THEIR USE” (BAYER PHARMA AKTIENGESELLSCHAFT, priority 2012, published 2015)
